Structures are written as SMILES.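 Tested at 5 concentrations; 48 h exposure; 96-well plates; endpoints linearly interpolated, else capped at highest concentration. The concentration for 50% growth inhibition is given as GI50.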 Active and inactive are the calls of the source. Rule as the data show it: active = GI50 up to about 1.1 µM and inactive = higher.

Test systems include OVCAR-5; NCI/ADR-RES; Hs-578T; M14; CCRF-CEM; BT-549; TK-10; HL-60; SF-295; EKVX; SK-MEL-5; HCC 2998; HCT-15; SK-MEL-28; MDA-N; MDA-MB-435; ACHN; IGROV-1; RXF 393.
Common to all, as to assay: NCI tumour cell line growth inhibition, 48 h

Turning to `O=C(/C=C\c1ccccc1)Oc1ccc(/C=C2\CCC/C(=C\c3ccc(OC(=O)/C=C\c4ccccc4)cc3)C2=O)cc1`, the GI50 in the experiment on OVCAR-5, in the experiment on NCI/ADR-RES, with Hs-578T, in the experiment with M14, in the experiment with CCRF-CEM and in the experiment on BT-549 was > 100 µM (inactive) each time. The GI50 in the experiment on TK-10, in the experiment on HL-60, in the experiment with SF-295, with EKVX, in the experiment with SK-MEL-5 and in the experiment with HCC 2998 was > 100 µM (inactive) throughout. Also, the GI50 is greater than 100 µM with HCT-15; > 100 µM (inactive) with SK-MEL-28; > 100 µM (inactive) with MDA-N; > 100 µM (inactive) in the experiment with MDA-MB-435; > 100 µM (inactive) with ACHN.

As for `COc1cc(S(=O)(=O)Nc2ccc(-c3csc(/N=C\c4cccs4)n3)cc2)ccc1Cl`, the GI50 with OVCAR-5 was > 100 µM (inactive); in the experiment with NCI/ADR-RES, > 100 µM (inactive); with Hs-578T, 68.2 µM (inactive); in the experiment with M14 it was 61.8 µM (inactive); with CCRF-CEM, 19.8 µM (inactive); in the experiment with BT-549 it was 31.1 µM (inactive). For the same compound, the GI50 with TK-10 is 49.9 µM (inactive); with SF-295 it was > 100 µM (inactive); with IGROV-1, 69.7 µM (inactive); with EKVX it was 28.1 µM (inactive); with SK-MEL-5, 42.3 µM (inactive); with HCC 2998, 29.4 µM (inactive). Besides, the GI50 is greater than 100 µM with HCT-15; 35.9 µM (inactive) with SK-MEL-28; 34.4 µM (inactive) in the experiment on MDA-N; 29.3 µM (inactive) in the experiment on MDA-MB-435; > 100 µM (inactive) with ACHN.

Consider `O=c1cc(NNc2ccccc2F)[nH]c(=O)[nH]1`, for which the GI50 in the experiment with OVCAR-5 is 19.5 µM (inactive); in the experiment with NCI/ADR-RES it was 16.6 µM (inactive); in the experiment on Hs-578T it was 21.9 µM (inactive); in the experiment on M14, 17.7 µM (inactive); in the experiment on CCRF-CEM it was 17.5 µM (inactive); in the experiment with BT-549, 17.5 µM (inactive). For the same compound, the GI50 is 14.4 µM (inactive) in the experiment with TK-10; 11.9 µM (inactive) in the experiment with HL-60; 16.7 µM (inactive) in the experiment on IGROV-1; 22.3 µM (inactive) in the experiment on SK-MEL-5; 17.9 µM (inactive) in the experiment with HCC 2998; 16 µM with HCT-15. The GI50 was 20.5 µM (inactive) in the experiment on SK-MEL-28, 18.5 µM (inactive) in the experiment with MDA-N, 1.26 µM (inactive) in the experiment on RXF 393 and 18.3 µM (inactive) in the experiment with ACHN.

As for `CC(=O)NN/C=N/C(C#N)=C(\N)C#N`, the GI50 in the experiment with OVCAR-5, with NCI/ADR-RES, with Hs-578T, in the experiment on M14, with CCRF-CEM and in the experiment with BT-549 was > 100 µM (inactive) throughout. The GI50 in the experiment on TK-10, in the experiment with HL-60, with SF-295, with IGROV-1, with EKVX and in the experiment on SK-MEL-5 was > 100 µM (inactive) throughout. Also, the GI50 in the experiment on HCC 2998 is > 100 µM (inactive); in the experiment on HCT-15, greater than 100 µM; in the experiment on SK-MEL-28, > 100 µM (inactive); with MDA-N, > 100 µM (inactive); with MDA-MB-435, > 100 µM (inactive); in the experiment with ACHN it was > 100 µM (inactive).

For `Cc1c2n(c3ccccc13)S(=O)(=O)c1ccccc1-2`, the GI50 in the experiment on OVCAR-5 is 88.3 µM (inactive); with NCI/ADR-RES, 28.1 µM (inactive); in the experiment with Hs-578T, 18.7 µM (inactive); in the experiment on M14, 27.4 µM (inactive); in the experiment with CCRF-CEM, > 100 µM (inactive); with BT-549, 39.8 µM (inactive). Further, the GI50 in the experiment with TK-10 is 25.6 µM (inactive); in the experiment on HL-60, > 100 µM (inactive); in the experiment on SF-295, 17.3 µM (inactive); with IGROV-1, 25.3 µM (inactive); with EKVX, 6.37 µM (inactive); in the experiment with SK-MEL-5, 72.1 µM (inactive). Further, the GI50 in the experiment with HCC 2998 was > 100 µM (inactive); in the experiment on HCT-15, 48.1 µM; in the experiment with SK-MEL-28, > 100 µM (inactive); with MDA-N, 34.9 µM (inactive); with MDA-MB-435 it was > 100 µM (inactive); in the experiment on ACHN, 18.1 µM (inactive).

Turning to `CCN(CC)P1(=S)Oc2ccc3ccccc3c2-c2c(ccc3ccccc23)O1`, the GI50 was > 100 µM (inactive) in the experiment with OVCAR-5; > 100 µM (inactive) in the experiment on NCI/ADR-RES; 40.3 µM (inactive) in the experiment on Hs-578T; > 100 µM (inactive) with M14; > 100 µM (inactive) in the experiment on CCRF-CEM; > 100 µM (inactive) in the experiment on BT-549. The GI50 in the experiment with TK-10 is > 100 µM (inactive); in the experiment on HL-60, > 100 µM (inactive); with SF-295, > 100 µM (inactive); in the experiment with IGROV-1, 89.3 µM (inactive); in the experiment on EKVX, > 100 µM (inactive); with SK-MEL-5, > 100 µM (inactive). The GI50 in the experiment with HCC 2998 was 77.4 µM (inactive); with HCT-15, 63.4 µM; with SK-MEL-28 it was > 100 µM (inactive); in the experiment with MDA-N, 51.2 µM (inactive); with MDA-MB-435 it was > 100 µM (inactive); in the experiment with ACHN, 67.3 µM (inactive).

On to `S=c1nc(Nc2ccc(Cl)cc2)c2c3c(sc2[nH]1)CCCC3`, for which the GI50 with OVCAR-5 is > 100 µM (inactive); in the experiment on Hs-578T it was > 100 µM (inactive); in the experiment on CCRF-CEM, 36.2 µM (inactive); in the experiment with BT-549 it was > 100 µM (inactive); in the experiment with TK-10 it was > 100 µM (inactive); with HL-60, 54 µM (inactive). Also, the GI50 in the experiment on SF-295 is > 100 µM (inactive); in the experiment on IGROV-1, > 100 µM (inactive); in the experiment with EKVX it was > 100 µM (inactive); with SK-MEL-5, > 100 µM (inactive); with HCC 2998 it was 43.4 µM (inactive); in the experiment with HCT-15, greater than 100 µM. The GI50 was > 100 µM (inactive) in the experiment on SK-MEL-28; > 100 µM (inactive) in the experiment on MDA-N; > 100 µM (inactive) in the experiment with MDA-MB-435; > 100 µM (inactive) with RXF 393; 74.5 µM (inactive) in the experiment on ACHN.

Regarding `CC(C)CC(NP(=O)(O)OC1OC(C)C(O)C(O)C1O)C(=O)NC(Cc1c[nH]c2ccccc12)C(=O)O` (stereo unspecified), the GI50 with OVCAR-5, in the experiment on NCI/ADR-RES, in the experiment on Hs-578T, in the experiment with M14, in the experiment on CCRF-CEM and in the experiment with BT-549 was > 100 µM (inactive) throughout. The GI50 is > 100 µM (inactive) in the experiment on SF-295; > 100 µM (inactive) in the experiment with IGROV-1; > 100 µM (inactive) in the experiment with EKVX; > 100 µM (inactive) in the experiment on SK-MEL-5; > 100 µM (inactive) in the experiment on HCC 2998; greater than 100 µM with HCT-15. For the same compound, the GI50 in the experiment on SK-MEL-28, in the experiment with MDA-N and with MDA-MB-435 was > 100 µM (inactive) each time.

Source of the values: ChEMBL document CHEMBL1201862, “PubChem BioAssay data set” (2004).
